Consider one compound from PMC10080691, “Enzyme-Responsive Double-Locked Photodynamic Molecular Beacon for Targeted Photodynamic Anticancer Therapy” (Journal of the American Chemical Society, 2023).

This test concerns HeLa cells. The test is described as follows: Intracellular ROS generation (H2DCFDA). It is filed as cell-based, human. The note with it: no inhibitor pretreatment, 2 μM 1 h + 6 h, light λ > 610 nm, 23 mW cm-2, 14 J cm-2. As for the experimental part: The enzyme-responsive intracellular ROS generation of 1 was then examined in A549 and HeLa cells using 2′,7′-dichlorodihydrofluorescein diacetate (H2DCFDA) as the ROS fluorescent probe. Once H2DCFDA is internalized, it will be deacetylated by the intracellular esterase, followed by oxidation by the intracellular ROS, leading to the formation of the highly fluorescent 2′,7′-dichlorofluorescein (DCF).[79] The cells were first pretreated with SB-3CT (10 μM) and/or CA-074 Me (25 μM) or simply the neat medium for 2 h, followed by incubation with 1 (2 μM) for a further 1 h. As a negative control, the cells were simply incubated with 14 (2 μM) for 1 h. After being rinsed with PBS, the cells were incubated in the medium for a further 6 h. Finally, the cells were incubated with H2DCFDA (10 μM) for 30 min, followed by dark or light (λ > 610 nm, 23 mW cm^–2, 14 J cm^–2) treatment. […] It can be seen that for the MMP-2-positive A549 cells, the fluorescence due to DCF was in the following order: 1 without pretreatment of the cells with the two inhibitors > 1 with pretreatment of the cells with either one of the two inhibitors > 1 with pretreatment of the cells with both inhibitors ≈ 14. […] This trend, which reflects the extent of recovery of ROS generation, was in accord with that of the fluorescence recovery inside the cells (Figure 5c,d). For the MMP-2-negative HeLa cells, the intracellular fluorescence remained very weak even for 1 without pretreatment of the cells with the two inhibitors because of the intrinsically low MMP levels in the cells. […]
or ER-Tracker Green (Thermo Fisher Scientific Inc., E34251) (1 μM for 15 min) in a serum-free medium at 37 °C. […] All the trackers were excited at 488 nm and their fluorescence was monitored at 500−570 nm, while the DSBDP moiety was excited at 638 nm and its fluorescence was monitored at 650−750nm. The images were digitized and analyzed using a Leica Application Suite X software. […]
at 500−550 nm. The images were digitized and analyzed using a Leica Application Suite X […]

For the compound `CCN(CC)c1ccc2nc3ccc(/N=N/c4ccc(N(C)CCCNC(=O)OC[C@@H]5[C@@H]6CCc7nnn(CC(=O)NCCCC[C@@H]8NC(=O)CNC(=O)[C@H](CCCCN)NC(=O)[C@H](CCCNC(=N)N)NC(=O)[C@H](C(C)C)NC(=O)CNC(=O)[C@H](CC(C)C)NC(=O)[C@@H]9CCCN9C(=O)[C@H](CCCCN)NC(=O)[C@@H](N)CSCc9cc(COc%10ccc(C%11=C%12C(C)=C(I)C(/C=C/c%13ccc(OCCOCCOCCOC)cc%13)=[N+]%12[B-](F)(F)n%12c(/C=C/c%13ccc(OCCOCCOCCOC)cc%13)c(I)c(C)c%12%11)cc%10)cc(c9)CSC[C@@H](C(N)=O)NC(=O)[C@H](CCCCN)NC(=O)[C@H](CCCCN)NC(=O)CNC(=O)[C@H](CC(C)C)NC(=O)[C@H](Cc9ccccc9)NC(=O)CNC(=O)[C@H](CCCCN)NC(=O)CNC8=O)c7CC[C@@H]65)cc4)cc3[n+](-c3ccccc3)c2c1` [compound 1], the “intracellular ROS generation (DCF fluorescence)” value is “very weak”.
